Earlier results in US8853212B2, “Substituted aminotetrahydrothiopyrans and derivatives thereof as dipeptidyl peptidase-IV inhibitors for the treatment of diabetes” (Merck Sharp & Dohme Corp, priority 2010, dated 2014).
One block for each compound: values may come before it.

What was measured:
[1] = test system: cardiac allograft; settings: rats; doubled from day 7
[2] = test system: hematopoiesis; settings: mouse, cyclophosphamide-induced neutropenia
[3] = target: DPP-4 (Homo sapiens (Human), UniProt P27487)
Chain of DPP-4 (P27487 39-766, species assumed): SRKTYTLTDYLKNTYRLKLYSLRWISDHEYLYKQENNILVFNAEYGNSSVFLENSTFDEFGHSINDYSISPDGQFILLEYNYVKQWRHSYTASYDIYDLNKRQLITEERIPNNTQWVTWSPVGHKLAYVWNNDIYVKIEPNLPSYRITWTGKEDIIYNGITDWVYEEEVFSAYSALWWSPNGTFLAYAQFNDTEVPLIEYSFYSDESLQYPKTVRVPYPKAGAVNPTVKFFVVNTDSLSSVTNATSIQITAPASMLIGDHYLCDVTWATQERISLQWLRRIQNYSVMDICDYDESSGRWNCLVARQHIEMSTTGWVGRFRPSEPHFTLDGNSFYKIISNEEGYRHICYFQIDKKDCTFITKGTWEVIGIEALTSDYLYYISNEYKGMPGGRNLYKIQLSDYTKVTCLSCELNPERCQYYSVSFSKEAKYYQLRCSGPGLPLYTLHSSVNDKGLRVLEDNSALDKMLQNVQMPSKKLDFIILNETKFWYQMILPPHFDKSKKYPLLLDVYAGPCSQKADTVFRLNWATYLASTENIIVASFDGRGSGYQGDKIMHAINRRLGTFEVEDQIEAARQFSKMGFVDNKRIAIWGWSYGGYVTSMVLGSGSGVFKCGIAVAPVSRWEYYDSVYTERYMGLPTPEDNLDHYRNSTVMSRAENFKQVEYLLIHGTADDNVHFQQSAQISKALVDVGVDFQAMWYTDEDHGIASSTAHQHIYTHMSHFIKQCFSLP

Compound: CC(C)N1CCC(c2ccccc2)(c2ccccc2)CC1 [Prodipine, Pro-Pro-diphenyl-phosphonate]
cardiac allograft survival [1]: 14 day

Compound: CC(C)[C@H](N)C(=O)N1CCC[C@H]1B(O)O [Val-Bono-Pro]
hematopoiesis [2]: stimulated hematopoiesis

degradation of GRF in plasma to GRF[3-44] [3]: prevented
Compound: diprotin A
